The target in the assay is SARS2 protease (Severe acute respiratory syndrome coronavirus 2, UniProt P0DTD1). Briefly: SARS-CoV-2 protease inhibition assay (SARS2 FRET protease assay). The assay is classed as biochemical. Conditions: SARS-CoV-2 protease 25 nM, FRET, peptide substrate 1.3 μM, 30 minutes at 30° C., compounds 20 μM to 1.0 nM; read-out: IC50.
Consider `CC(C)C[C@H](NC(=O)OC1CCCC1Cc1ccccc1)C(=O)N[C@@H](C[C@@H]1CCNC1=O)C(=O)C(N)=O` (stereo partly drawn) [Compound C240, 2-Benzylcyclopentyl ((S)-1-(((S)-4-amino-3,4-dioxo-1-((S)-2-oxopyrrolidin-3-yl)butan-2-yl)amino)-4-methyl-1-oxopentan-2-yl)carbamate], for which the IC50 was 230 nM.

On to `O=C(N[C@@H](CC1CCCCC1)C(=O)N[C@@H](C[C@@H]1CCNC1=O)C(=O)C(=O)NC1CC1)OC(Cc1cccc(Cl)c1)c1cccc(Cl)c1` (stereo partly drawn) [Compound C241, 1,2-Bis(3-chlorophenyl)ethyl ((S)-3-cyclohexyl-1-(((S)-4-(cyclopropylamino)-3,4-dioxo-1-((S)-2-oxopyrrolidin-3-yl)butan-2-yl)amino)-1-oxopropan-2-yl)carbamate], for which the IC50 turned out to be 2350 nM. Under `CC(C)C[C@H](NC(=O)OC(Cc1cccc(Cl)c1)c1cccc(Cl)c1)C(=O)N[C@@H](C[C@@H]1CCNC1=O)C(=O)C(=O)NC1CC1` (stereo partly drawn) [Compound C242, 1,2-Bis(3-chlorophenyl)ethyl ((S)-1-(((S)-4-(cyclopropylamino)-3,4-dioxo-1-((S)-2-oxopyrrolidin-3-yl)butan-2-yl)amino)-4-methyl-1-oxopentan-2-yl)carbamate] stands 74 nM; under `CC(C)C[C@H](NC(=O)OC(Cc1cccc(Cl)c1)c1ccccc1)C(=O)N[C@@H](C[C@@H]1CCNC1=O)C(=O)C(=O)N1CCCCC1` (stereo partly drawn) [Compound C243, 2-(3-Chlorophenyl)-1-phenylethyl ((S)-1-(((S)-3,4-dioxo-1-((S)-2-oxopyrrolidin-3-yl)-4-(piperidin-1-yl)butan-2-yl)amino)-4-methyl-1-oxopentan-2-yl) carbamate], greater than 20000 nM.

Take `CC1(C)CC(CC(NC(=O)[C@H](CC2CCCCC2)NC(=O)OCc2cccc(Cl)c2)C(=O)C(=O)NC2CC2)C(=O)N1` (stereo partly drawn) [Compound C244, 3-Chlorobenzyl ((2S)-3-cyclohexyl-1-((4-(cyclopropylamino)-1-(5,5-dimethyl-2-oxopyrrolidin-3-yl)-3,4-dioxobutan-2-yl)amino)-1-oxopropan-2-yl) carbamate]: the IC50 amounted to 1730 nM.

Regarding `CC1(C)CC(CC(NC(=O)[C@H](CC2CCCCC2)NC(=O)OC(c2ccc(Cl)cc2)C(C)(C)c2cccc(Cl)c2)C(=O)C(=O)NC2CC2)C(=O)N1` (stereo partly drawn) [Compound C245], the IC50 was found to be 1980 nM.

On to `CC(C)C[C@H](NC(=O)OC(c1ccc(Cl)cc1)C(C)(C)c1cccc(Cl)c1)C(=O)N[C@H](C=O)C[C@@H]1CCNC1=O` (stereo partly drawn) [Compound C246], for which the IC50 was 520 nM. Under `CC(C)C[C@H](NC(=O)OC(c1ccc(F)cc1)C(C)(C)c1cccc(Cl)c1)C(=O)N[C@@H](C[C@@H]1CCNC1=O)C(=O)C(=O)NC1CC1` (stereo partly drawn) [Compound C247] stands 80 nM; under `CC(C)C[C@H](NC(=O)OC(c1ccccc1)C(C)(C)c1cccc(Cl)c1)C(=O)N[C@@H](C[C@@H]1CCNC1=O)C(=O)C(=O)N1CCN(C)CC1` (stereo partly drawn) [Compound C248], 6930 nM; under `CC(C)C[C@H](NC(=O)OC(Cc1cccc(Cl)c1)c1ccccc1)C(=O)N[C@@H](C[C@@H]1CCNC1=O)C(=O)NS(=O)(=O)C1CC1` (stereo partly drawn) [Compound C249], greater than 20000 nM. In the case of `O=C[C@H](C[C@@H]1CCNC1=O)NC(=O)[C@H](CC1CCCCC1)NC(=O)OC(c1cccc(Cl)c1)C1(c2cccc(Cl)c2)CC1` (stereo partly drawn) [Compound C250, (3-Chlorophenyl)(1-(3-chlorophenyl)cyclopropyl)methyl ((S)-3-cyclohexyl-1-oxo-1-(((S)-1-oxo-3-((S)-2-oxopyrrolidin-3-yl)propan-2-yl)amino)propan-2-yl)carbamate] it was 10 nM; in that of `CC(C)C[C@H](NC(=O)OC(c1ccccc1)C(F)(F)c1cccc(Cl)c1)C(=O)N[C@@H](C[C@@H]1CCNC1=O)C(=O)C(N)=O` (stereo partly drawn) [Compound C251], 0.008 nM. In the case of `CC(C)(c1cccc(Cl)c1)C(OC(=O)N[C@@H](Cc1ccccc1)C(=O)N[C@@H](C[C@@H]1CCNC1=O)C(=O)C(N)=O)c1ccccc1` (stereo partly drawn) [Compound C254] it was 4270 nM. For the molecule `NC(=O)C(=O)[C@H](C[C@@H]1CCNC1=O)NC(=O)[C@H](Cc1ccccc1)NC(=O)OC(CCc1ccccc1)c1ccccc1` (stereo partly drawn) [Compound C255], the IC50 turned out to be 70 nM.

For `CC(C)C[C@H](NC(=O)OCCCc1ccccc1)C(=O)N[C@@H](C[C@@H]1CCNC1=O)C(=O)C(N)=O` [Compound C256], the half-inhibitory concentration (IC50) is 320 nM. For `CC(C)(c1cccc(Cl)c1)C(OC(=O)N[C@@H](Cc1ccccc1)C(=O)N[C@H](C=O)C[C@@H]1CCNC1=O)c1ccccc1` (stereo partly drawn) [Compound C257], the IC50 is greater than 20000 nM.

As for `CC(C)C[C@H](NC(=O)OC(c1ccccc1)C(F)(F)c1cccc(Cl)c1)C(=O)N[C@@H](C[C@@H]1CCNC1=O)C(=O)C(=O)NC1CC1` (stereo partly drawn) [Compound C258], the IC50 turned out to be 90 nM. Take `CC(C)C[C@H](NC(=O)OC(CCc1ccccc1)c1ccccc1)C(=O)N[C@H](C=O)C[C@@H]1CCNC1=O` (stereo partly drawn) [Compound C259]: the IC50 amounted to 50 nM. Regarding `CC(C)C[C@H](NC(=O)OC(c1ccccc1)C(C)(C)c1cccc(Cl)c1)C(=O)N[C@@H](C[C@@H]1CCNC1=O)C(=O)C(=O)NCCN(C)C` (stereo partly drawn) [Compound C260], the IC50 was found to be 1140 nM. As to `CC(C)C[C@H](NC(=O)OC(c1ccccc1)C(C)(C)c1cccc(Cl)c1)C(=O)N[C@@H](C[C@@H]1CCNC1=O)C(=O)C(=O)N1CCN(C(=O)OC(C)(C)C)CC1` (stereo partly drawn) [Compound C261], the IC50 was determined as 17000 nM. Under `O=C[C@H](C[C@@H]1CCNC1=O)NC(=O)[C@H](CC1CCCCC1)NC(=O)O[C@@H]1CCC[C@H]1Cc1cccc(Cl)c1` [Compound C262] stands 20 nM; under `O=C(N[C@@H](CC1CCCCC1)C(=O)N[C@@H](C[C@@H]1CCNC1=O)C(=O)C(=O)NC1CC1)O[C@H]1CCC[C@@H]1Cc1cccc(Cl)c1` [Compound C264], 680 nM. Under `O=C(N[C@@H](CC1CCCCC1)C(=O)N[C@@H](C[C@@H]1CCNC1=O)C(=O)C(=O)NC1CC1)O[C@@H]1CCC[C@@H]1Cc1cccc(Cl)c1` [Compound C265] stands 840 nM; under `CC(C)C[C@H](NC(=O)OC(c1cccc(Cl)c1)C(F)(F)c1cccc(Cl)c1)C(=O)N[C@H](C=O)C[C@@H]1CCNC1=O` (stereo partly drawn) [Compound C266], 20 nM. Under `CCCCC[C@H](NC(=O)OC(c1ccccc1)C(C)(C)c1cccc(Cl)c1)C(=O)N[C@H](C=O)C[C@@H]1CCNC1=O` (stereo partly drawn) [Compound C267] stands 100 nM; under `CC(C)C[C@H](NC(=O)O[C@@H](c1cccc(F)c1)C(C)(C)c1cccc(Cl)c1)C(=O)N[C@H](C=O)C[C@@H]1CCNC1=O` [Compound C268], 20 nM; under `CC(C)C[C@H](NC(=O)O[C@H](c1cccc(F)c1)C(C)(C)c1cccc(Cl)c1)C(=O)N[C@H](C=O)C[C@@H]1CCNC1=O` [Compound C269], 70 nM. As for `CC(C)C[C@H](NC(=O)OC(c1ccccc1)C(C)(C)c1cccc(Cl)c1)C(=O)N[C@@H](C[C@@H]1CCNC1=O)C(=O)C(=O)N1CCCCC1` (stereo partly drawn) [Compound C270], the IC50 was 4410 nM. Under `CCOCCNC(=O)C(=O)[C@H](C[C@@H]1CCNC1=O)NC(=O)[C@H](CC1CCCCC1)NC(=O)OC(c1ccccc1)C(C)(C)c1cccc(Cl)c1` (stereo partly drawn) [Compound C271] stands 2000 nM; under `O=C[C@H](C[C@@H]1CCNC1=O)NC(=O)[C@H](CC1CCCCC1)NC(=O)OC(Cc1cccc(Cl)c1)c1cccc(Cl)c1` (stereo partly drawn) [Compound C272, 1,2-Bis(3-chlorophenyl)ethyl ((S)-3-cyclohexyl-1-oxo-1-(((S)-1-oxo-3-((S)-2-oxopyrrolidin-3-yl)propan-2-yl)amino)propan-2-yl)carbamate], 320 nM; under `CC(C)(c1cccc(Cl)c1)C(OC(=O)N[C@@H](CC1CCCCC1)C(=O)N[C@@H](C[C@@H]1CCNC1=O)C(=O)CO)c1ccccc1` (stereo partly drawn) [Compound C273], 5350 nM. In the case of `CC(C)C[C@H](NC(=O)OC(c1ccccc1)C(C)(C)c1cccc(Cl)c1)C(=O)N[C@@H](C[C@@H]1CCNC1=O)C(=O)C(=O)N1CCNCC1` (stereo partly drawn) [Compound C274] it was 12000 nM. In the case of `CC(C)C[C@H](NC(=O)O[C@@H](c1ccccc1)C(C)(C)c1cccc(Cl)c1)C(=O)N[C@H](C=O)C[C@@H]1CCNC1=O` [Compound C275] it was 20 nM; in that of `CC(C)C[C@H](NC(=O)O[C@H](c1ccccc1)C(C)(C)c1cccc(Cl)c1)C(=O)N[C@H](C=O)C[C@@H]1CCNC1=O` [Compound C276], 60 nM. Take `CC(C)C[C@H](NC(=O)OC(c1ccccc1)C1(c2cccc(Cl)c2)CCC1)C(=O)N[C@H](C=O)C[C@@H]1CCNC1=O` (stereo partly drawn) [Compound C277]: the IC50 is 710 nM. Under `CC(C)C[C@H](NC(=O)OC(c1ccccc1)C1(c2cccc(Cl)c2)CCCC1)C(=O)N[C@H](C=O)C[C@@H]1CCNC1=O` (stereo partly drawn) [Compound C278] stands 20 nM; under `CC(C)C[C@H](NC(=O)OC(c1ccccc1)C(F)(F)c1cccc(Cl)c1)C(=O)N[C@@H](C[C@@H]1CCNC1=O)C(=O)CO` (stereo partly drawn) [Compound C279], 6590 nM; under `CC(C)C[C@H](NC(=O)OC(Cc1ccccc1)c1ccccc1)C(=O)N[C@@H](C[C@@H]1CCNC1=O)C(=O)C(=O)N1CCN(C(=O)OC(C)(C)C)CC1` (stereo partly drawn) [Compound C280], greater than 20000 nM. Under `CC1(C)CC(CC(NC(=O)[C@H](CC2CCCCC2)NC(=O)OC(c2cccc(Cl)c2)C(C)(C)c2cccc(Cl)c2)C(=O)C(=O)NC2CC2)C(=O)N1` (stereo partly drawn) [Compound C281] stands 2480 nM; under `CC(C)C[C@H](NC(=O)OC(Cc1cccc(Cl)c1)c1cccc(Cl)c1)C(=O)N[C@H](C=O)C[C@@H]1CCNC1=O` (stereo partly drawn) [Compound C282, 1,2-Bis(3-chlorophenyl)ethyl ((S)-4-methyl-1-oxo-1-(((S)-1-oxo-3-((S)-2-oxopyrrolidin-3-yl)propan-2-yl)amino)pentan-2-yl)carbamate], 40 nM.

Take `CC(C)C[C@H](NC(=O)OC(Cc1ccccc1)c1ccccc1)C(=O)N[C@@H](C[C@@H]1CCNC1=O)C(=O)C(=O)N1CCNCC1` (stereo partly drawn) [Compound C283]: the half-maximal inhibitory concentration (IC50) was greater than 20000 nM. In the case of `CC(C)(c1cccc(Cl)c1)C(OC(=O)N[C@@H](Cc1ccccc1)C(=O)N[C@@H](C[C@@H]1CCNC1=O)C(=O)C(=O)NC1CC1)c1ccccc1` (stereo partly drawn) [Compound C284] it was 1570 nM.

These data come from US20230159453A1 (COCRYSTAL PHARMA, INC., priority 2020, published 2023).
